# Test results reported in patent US20260234139A1, “PGDH INHIBITORS AND METHODS OF MAKING AND USING” (Epirium Bio Inc., priority 2023, published 2026).
# Columns and labels:
# [1] = target: T1, 15-PGDH/HPGD (Homo sapiens, UniProt P15428); experiment: hPGDH inhibitor screening biochemical assay; conditions: 10 nM enzyme, 15 μM Prostaglandin E2, 0.25 mM NAD, fluorescence ex/em 340/485 nm
# T1 construct: purchased R&D System 5660-DH
# T1 sequence (P15428 1-266): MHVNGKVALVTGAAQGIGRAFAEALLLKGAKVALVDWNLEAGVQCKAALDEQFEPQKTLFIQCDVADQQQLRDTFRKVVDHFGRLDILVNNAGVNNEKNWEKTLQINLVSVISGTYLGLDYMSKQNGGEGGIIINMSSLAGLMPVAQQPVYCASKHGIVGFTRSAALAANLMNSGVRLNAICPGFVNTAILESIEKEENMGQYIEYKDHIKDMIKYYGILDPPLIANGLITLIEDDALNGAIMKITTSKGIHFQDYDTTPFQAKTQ
# Method: A hydroxyprostaglandin dehydrogenase inhibition screening biochemical assay can be performed to assess the synthesized inhibitors provided herein. Provided herein is an exemplary biochemical assay for hPGDH inhibitor screening.
# The in vitro biochemical assay can be performed in white, 384 plates in total 20 μl reaction volume consisting of 10 nM of 15-PGDH/HPGD (R&D System #5660-DH), 15 μM Prostaglandin E2 (Sigma, Cat #P5640-10 MG) and 0.25 mM B-Nicotinamide adenine dinucleotide sodium salt (Sigma, Cat #N0632-5G) made in reaction buffer (50 mM Tris-HCl, pH 7.5, 0.01% Tween 20) at 10-point dose response curve for test/tool compounds. Briefly, 5 μl (4×) of compounds solution and 5 μl (final concentration, 10 nM) of enzyme solution is added to white 384 well plates and incubated for 10 mins at 37° C. 5 μl (4×) of Prostaglandin E2 and 5 μl (4×) of β-Nicotinamide adenine dinucleotide sodium salt is added to the wells and incubated for 10 mins at room temperature. Fluorescence is recorded at ex/em=340 nm/485 nm.
# [2] = system: A549; experiment: A549 EC50 (cell assay, method not described); format: cell-based
Structure (SMILES),IC50 [1] [nM],"EC50 ([2]; Homo sapiens, A549, A549) [nM]",EC50 ([2]; A549) [nM]
"CC(C)OCC(O)c1cnc2c(cnn2-c2ccc(CCC(=O)O)c(F)c2)c1 (stereo in doubt) [Compound 70A, (R)-3-(2-fluoro-4-(5-(1-hydroxy-2-isopropoxyethyl)-1H-pyrazolo[3,4-b]pyridin-1-yl)phenyl) propanoic acid]",< 100,< 100,
"CC(C)OCC(O)c1cnc2c(cnn2-c2ccc(CCC(=O)O)c(F)c2)c1 (stereo in doubt) [Compound 70B, (S)-3-(2-fluoro-4-(5-(1-hydroxy-2-isopropoxyethyl)-1H-pyrazolo[3,4-b]pyridin-1-yl)phenyl) propanoic acid]",< 100,100 to 1000,
CCCC[C@H](O)c1cnc2c(ccn2-c2cccc(-c3nnc[nH]3)c2)n1 [Compound 2A],< 100,< 100,
CCCC[C@@H](O)c1cnc2c(ccn2-c2cccc(-c3nnc[nH]3)c2)n1 [Compound 2B],< 100,100 to 1000,
"CC(C)C[C@H](O)[C@H](O)c1cnc2c(ccn2-c2cccc(-c3nnc[nH]3)c2)c1 [Compound 3C, (1R,2S)-4-methyl-1-[1-[3-(4H-1,2,4-triazol-3-yl)phenyl]pyrrolo[2,3-b]pyridin-5-yl]pentane-1,2-diol]",< 100,100 to 1000,
"CC(C)C[C@@H](O)[C@@H](O)c1cnc2c(ccn2-c2cccc(-c3nnc[nH]3)c2)c1 [Compound 3D, (1S,2R)-4-methyl-1-[1-[3-(4H-1,2,4-triazol-3-yl)phenyl]pyrrolo[2,3-b]pyridin-5-yl]pentane-1,2-diol]",< 100,,< 100
CCCC(F)(F)[C@@H](O)c1cnc2c(ccn2-c2cccc(-c3nnc[nH]3)c2)c1 [Compound 4A],< 100,100 to 1000,
CCCC(F)(F)[C@H](O)c1cnc2c(ccn2-c2cccc(-c3nnc[nH]3)c2)c1 [Compound 4B],< 100,< 100,
CC(F)(F)[C@@H](O)c1cnc2c(ccn2-c2cccc(-c3nnc[nH]3)c2)c1 [Compound 5A],< 100,< 100,
CC(F)(F)[C@H](O)c1cnc2c(ccn2-c2cccc(-c3nnc[nH]3)c2)c1 [Compound 5B],100 to 1000,100 to 1000,
O[C@H](c1cnc2c(ccn2-c2cccc(-c3nnc[nH]3)c2)c1)C1CCC1 [Compound 10A],< 100,< 100,
O[C@@H](c1cnc2c(ccn2-c2cccc(-c3nnc[nH]3)c2)c1)C1CCC1 [Compound 10B],< 100,< 100,
O[C@@H](c1cnc2c(ccn2-c2cc(Cl)cc(-c3nnc[nH]3)c2)c1)C1CCC(F)(F)CC1 [Compound 12A],< 100,≥ 1000,
O[C@H](c1cnc2c(ccn2-c2cc(Cl)cc(-c3nnc[nH]3)c2)c1)C1CCC(F)(F)CC1 [Compound 12B],< 100,< 100,
CCCCC(C)(O)c1cnc2c(ccn2-c2cc(Cl)cc(-c3nnc[nH]3)c2)c1 (stereo not shown) [Compound 15],100 to 1000,≥ 1000,
CCCCC(OC)c1cnc2c(ccn2-c2cc(Cl)cc(-c3nnc[nH]3)c2)c1 (stereo not shown) [Compound 16],100 to 1000,100 to 1000,
CCCC[C@@H](O)c1cnc2c(ccn2-c2cc(Cl)cc(-c3nnc[nH]3)c2)c1 [Compound 17A],< 100,< 100,
CCCC[C@H](O)c1cnc2c(ccn2-c2cc(Cl)cc(-c3nnc[nH]3)c2)c1 [Compound 17B],< 100,< 100,
CC(C)OC[C@@H](O)c1cnc2c(ccn2-c2cccc(-c3nnc[nH]3)c2)n1 [Compound 20A],< 100,< 100,
CC(C)OC[C@H](O)c1cnc2c(ccn2-c2cccc(-c3nnc[nH]3)c2)n1 [Compound 20B],< 100,100 to 1000,
CCNCC(O)c1cnc2c(cnn2-c2cccc(-c3nnc[nH]3)c2)c1 (stereo not shown) [Compound 21],≥ 1000,≥ 1000,
CC(C)NC[C@H](O)c1cnc2c(ccn2-c2cccc(-c3nnc[nH]3)c2)n1 [Compound 22A],≥ 1000,≥ 1000,
CC(C)NC[C@@H](O)c1cnc2c(ccn2-c2cccc(-c3nnc[nH]3)c2)n1 [Compound 22B],100 to 1000,≥ 1000,
CCOC[C@H](O)c1cnc2c(cnn2-c2cccc(-c3nnc[nH]3)c2)c1 [Compound 23A],< 100,100 to 1000,
CCOC[C@@H](O)c1cnc2c(cnn2-c2cccc(-c3nnc[nH]3)c2)c1 [Compound 23B],< 100,< 100,

Structure (SMILES),IC50 [1] [nM],"EC50 ([2]; Homo sapiens, A549, A549) [nM]",EC50 ([2]; A549) [nM]
O[C@@H](COC1CCC1)c1cnc2c(cnn2-c2cccc(-c3nnc[nH]3)c2)c1 [Compound 24A],< 100,100 to 1000,
O[C@H](COC1CCC1)c1cnc2c(cnn2-c2cccc(-c3nnc[nH]3)c2)c1 [Compound 24B],< 100,< 100,
CN(C)C[C@H](O)c1cnc2c(cnn2-c2cccc(-c3nnc[nH]3)c2)c1 [Compound 25A],100 to 1000,≥ 1000,
CN(C)C[C@@H](O)c1cnc2c(cnn2-c2cccc(-c3nnc[nH]3)c2)c1 [Compound 25B],100 to 1000,≥ 1000,
CC(C)(C)OC[C@H](O)c1cnc2c(ccn2-c2cccc(-c3nnc[nH]3)c2)n1 [Compound 26A],< 100,100 to 1000,
CC(C)(C)OC[C@@H](O)c1cnc2c(ccn2-c2cccc(-c3nnc[nH]3)c2)n1 [Compound 26B],< 100,< 100,
"CC(C)NC[C@H](O)c1cnc2c(cnn2-c2cccc(-c3nnc[nH]3)c2)c1 [Compound 27A, (R)-1-(1-(3-(4H-1,2,4-triazol-3-yl)phenyl)-1H-pyrazolo[3,4-b]pyridin-5-yl)-2-(isopropylamino) ethan-1-ol]",≥ 1000,≥ 1000,
"CC(C)NC[C@@H](O)c1cnc2c(cnn2-c2cccc(-c3nnc[nH]3)c2)c1 [Compound 27B, (S)-1-(1-(3-(4H-1,2,4-triazol-3-yl)phenyl)-1H-pyrazolo[3,4-b]pyridin-5-yl)-2-(isopropylamino) ethan-1-ol]",< 100,100 to 1000,
O[C@@H](c1cnc2c(cnn2-c2cccc(-c3nnc[nH]3)c2)c1)C1COC1 [Compound 28A],< 100,< 100,
O[C@H](c1cnc2c(cnn2-c2cccc(-c3nnc[nH]3)c2)c1)C1COC1 [Compound 28B],< 100,100 to 1000,
CC(C)OC[C@H](O)c1cnc2c(ccn2-c2cccc(-c3nnc[nH]3)c2)c1 [Compound 29A],< 100,< 100,
CC(C)OC[C@@H](O)c1cnc2c(ccn2-c2cccc(-c3nnc[nH]3)c2)c1 [Compound 29B],< 100,< 100,
O[C@H](COC1CCC1)c1cnc2c(ccn2-c2cccc(-c3nnc[nH]3)c2)n1 [Compound 30A],< 100,100 to 1000,
O[C@@H](COC1CCC1)c1cnc2c(ccn2-c2cccc(-c3nnc[nH]3)c2)n1 [Compound 30B],< 100,< 100,
CC(C)(C)OC[C@@H](O)c1cnc2c(ccn2-c2cccc(-c3nnc[nH]3)c2)c1 [Compound 31B],< 100,< 100,
CC(C)(C)OC[C@H](O)c1cnc2c(cnn2-c2cccc(-c3nnc[nH]3)c2)c1 [Compound 32A],< 100,≥ 1000,
CC(C)(C)OC[C@@H](O)c1cnc2c(cnn2-c2cccc(-c3nnc[nH]3)c2)c1 [Compound 32B],< 100,< 100,
"CC(C)(O)[C@H](O)c1cnc2c(cnn2-c2cccc(-c3nnc[nH]3)c2)c1 [Compound 33A, (R)-1-(1-(3-(4H-1,2,4-triazol-3-yl)phenyl)-1H-pyrazolo[3,4-b]pyridin-5-yl)-2-methylpropane-1,2-diol]",100 to 1000,≥ 1000,
"CC(C)(O)[C@@H](O)c1cnc2c(cnn2-c2cccc(-c3nnc[nH]3)c2)c1 [Compound 33B, (S)-1-(1-(3-(4H-1,2,4-triazol-3-yl)phenyl)-1H-pyrazolo[3,4-b]pyridin-5-yl)-2-methylpropane-1,2-diol]",100 to 1000,≥ 1000,
CCCC(F)(F)[C@@H](O)c1cnc2c(ccn2-c2cccc(-c3nnc[nH]3)c2)n1 [Compound 35A],< 100,< 100,
CCCC(F)(F)[C@H](O)c1cnc2c(ccn2-c2cccc(-c3nnc[nH]3)c2)n1 [Compound 35B],100 to 1000,≥ 1000,
COCC[C@@H](O)c1cnc2c(cnn2-c2cccc(-c3nnc[nH]3)c2)c1 [Compound 36A],< 100,< 100,
COCC[C@H](O)c1cnc2c(cnn2-c2cccc(-c3nnc[nH]3)c2)c1 [Compound 36B],< 100,100 to 1000,
O[C@@H](COC1CC1)c1cnc2c(cnn2-c2cccc(-c3nnc[nH]3)c2)c1 [Compound 37A],< 100,100 to 1000,
O[C@H](COC1CC1)c1cnc2c(cnn2-c2cccc(-c3nnc[nH]3)c2)c1 [Compound 37B],< 100,< 100,
